The source of these data is patent US11254686B1 (Corvus Pharmaceuticals, Inc., priority 2017, dated 2022).

Data set [1] can be described thus: Hepatocyte (Hep) intrinsic clearance, dog. It counts as in vitro ADME. The conditions noted are these: hepatocytes.
The target in data set [2] is T1, adenosine A3 receptor (Homo sapiens (Human), UniProt P0DMS8). Put plainly: A3 cAMP IC50 assay (Table 1). The class given is biochemical.
The next data set addresses CYP2D6 (Homo sapiens (Human), UniProt P10635). Briefly: CYP450 inhibition at 10 μM, CYP2D6. It counts as in vitro ADME. The following applies: read-out: CYP 450 % INH @ 10 μM.
A short description of data set [3]: Hepatocyte (Hep) intrinsic clearance, human. The following applies: hepatocytes. It counts as in vitro ADME.
Data set [4] can be described thus: Hepatocyte (Hep) intrinsic clearance, rat. The class given is in vitro ADME. The conditions noted are these: hepatocytes.
The target in the next data set is CYP3A4 (Homo sapiens (Human), UniProt P08684). Briefly: CYP450 inhibition at 10 μM, CYP3A4. The following applies: human, 10 μM, read-out: CYP 450 % INH @ 10 μM. The class given is in vitro ADME.
Chain of CYP3A4 (P08684 whole entry): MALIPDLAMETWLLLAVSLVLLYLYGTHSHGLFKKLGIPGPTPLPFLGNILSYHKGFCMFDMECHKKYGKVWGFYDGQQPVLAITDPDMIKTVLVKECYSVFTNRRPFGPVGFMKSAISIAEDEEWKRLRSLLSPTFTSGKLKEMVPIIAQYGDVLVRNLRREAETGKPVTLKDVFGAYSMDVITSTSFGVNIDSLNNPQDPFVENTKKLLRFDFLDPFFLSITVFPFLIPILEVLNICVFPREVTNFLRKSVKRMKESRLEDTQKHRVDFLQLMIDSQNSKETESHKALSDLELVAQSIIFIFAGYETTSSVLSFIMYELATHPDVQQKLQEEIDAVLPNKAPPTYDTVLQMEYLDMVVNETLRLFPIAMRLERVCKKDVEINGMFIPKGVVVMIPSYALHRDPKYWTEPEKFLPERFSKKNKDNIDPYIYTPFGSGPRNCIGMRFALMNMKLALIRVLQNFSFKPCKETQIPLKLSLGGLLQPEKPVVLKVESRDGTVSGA
For a further data set, the target named is adenosine A2B receptor (Homo sapiens (Human), UniProt P29275). Briefly: Adenosine receptor activity assay (Table 1), A2B activity. It counts as biochemical. The conditions noted are these: for IC50: read-out: Ave A2B cAMP IC50.
Chain of adenosine A2B receptor (P29275 whole entry): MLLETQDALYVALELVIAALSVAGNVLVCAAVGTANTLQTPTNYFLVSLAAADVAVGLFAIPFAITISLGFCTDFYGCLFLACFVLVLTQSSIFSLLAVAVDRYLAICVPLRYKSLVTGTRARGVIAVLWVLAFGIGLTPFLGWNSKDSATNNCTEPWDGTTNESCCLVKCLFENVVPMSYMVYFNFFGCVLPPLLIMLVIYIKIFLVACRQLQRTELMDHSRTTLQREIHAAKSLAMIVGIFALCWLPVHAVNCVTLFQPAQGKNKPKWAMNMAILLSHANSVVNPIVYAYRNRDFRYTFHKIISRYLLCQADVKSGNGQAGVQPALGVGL
Data set [5] is described as follows: Liver microsome (LM) intrinsic clearance, human. The class given is in vitro ADME. A general note: Microsomes from liver hold many membrane-bound enzymes, among them those of drug oxidation.
The nature of data set [6]: Liver microsome (LM) intrinsic clearance, rat. It counts as in vitro ADME.
For data set [7], the target named is T2, adenosine A1 receptor (Homo sapiens (Human), UniProt P30542). Put plainly: A1 cAMP IC50 assay (Table 1). The class given is biochemical.
T2 sequence (P30542 whole entry): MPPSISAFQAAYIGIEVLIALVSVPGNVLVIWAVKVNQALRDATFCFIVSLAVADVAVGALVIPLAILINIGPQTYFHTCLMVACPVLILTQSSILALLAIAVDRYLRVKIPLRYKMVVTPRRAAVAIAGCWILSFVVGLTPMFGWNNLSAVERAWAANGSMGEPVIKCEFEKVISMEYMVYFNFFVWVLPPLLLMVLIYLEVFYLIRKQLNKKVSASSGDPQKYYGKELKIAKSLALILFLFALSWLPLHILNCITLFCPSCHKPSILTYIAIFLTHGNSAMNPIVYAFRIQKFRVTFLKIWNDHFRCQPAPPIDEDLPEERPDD
In another data set the target is adenosine A2A receptor (Homo sapiens (Human), UniProt P29274). Briefly: Adenosine receptor activity assay (Table 1), A2A activity. It counts as biochemical. The following applies: read-out: Ave A2A cAMP IC50.
Chain of adenosine A2A receptor (P29274 whole entry): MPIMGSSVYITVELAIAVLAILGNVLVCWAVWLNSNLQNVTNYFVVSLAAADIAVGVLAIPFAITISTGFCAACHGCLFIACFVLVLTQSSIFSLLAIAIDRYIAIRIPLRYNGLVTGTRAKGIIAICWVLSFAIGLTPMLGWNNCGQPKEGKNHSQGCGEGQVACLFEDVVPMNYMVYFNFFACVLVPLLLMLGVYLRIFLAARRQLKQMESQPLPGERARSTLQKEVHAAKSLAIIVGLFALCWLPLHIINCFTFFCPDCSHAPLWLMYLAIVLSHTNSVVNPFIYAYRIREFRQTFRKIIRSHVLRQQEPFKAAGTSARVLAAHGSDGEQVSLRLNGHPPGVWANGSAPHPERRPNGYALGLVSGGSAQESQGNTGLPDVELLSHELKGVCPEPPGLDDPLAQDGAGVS
The target in data set [8] is T2, adenosine A1 receptor. Put plainly: Adenosine receptor activity assay (Table 1), A1 cAMP. The class given is cell-based.
The nature of data set [9]: Hepatocyte intrinsic clearance, human. It counts as in vitro ADME. The following applies: hepatocytes.
Data set [10] has as its target T1, adenosine A3 receptor. Put plainly: Adenosine receptor activity assay (Table 1), A3 cAMP. It counts as cell-based.
Data set [11] relates to CYP 450 (isoform not given). Put plainly: CYP450 inhibition at 10 μM. The class given is in vitro ADME. The conditions noted are these: read-out: CYP 450 % INH @ 10 μM.
Data set [12] can be described thus: Hepatocyte intrinsic clearance, rat. The class given is in vitro ADME. The conditions noted are these: hepatocytes.
A short description of data set [13]: Liver microsome intrinsic clearance, rat. The class given is in vitro ADME.
Data set [14] in a line: Liver microsome intrinsic clearance, human. The class given is in vitro ADME.
A short description of data set [15]: Liver microsome intrinsic clearance (LM CLint), rat. The class given is in vitro ADME.
The nature of data set [16]: Liver microsome intrinsic clearance (LM CLint), human. The class given is in vitro ADME.
Data set [17] concerns the target T1, adenosine A3 receptor. Briefly: Adenosine receptor activity assay (Table 1), A3 cAMP. It counts as biochemical. As for the experimental part: (§1) Table 1. Compounds (e.g., Adenosine Receptor modulators) and activity assay results. The legend is as follows: A=<10 nM; B=10-50 nM; C=50-100 nM; D=100-500; and E=>500 nM. The ratio corresponds to the A2A activity to the A2B activity; or A2A/A2B.

Data set [18] concerns the target T2, adenosine A1 receptor. Briefly: Adenosine receptor activity assay (Table 1), A1 cAMP. The class given is biochemical. As for the experimental part:
as §1

Setting [19] is: A2A activity to A2B activity (A2A/A2B).
Where [20] appears, read: A2A activity to the A2B activity, A2A/A2B.

T1 sequence (P0DMS8 whole entry): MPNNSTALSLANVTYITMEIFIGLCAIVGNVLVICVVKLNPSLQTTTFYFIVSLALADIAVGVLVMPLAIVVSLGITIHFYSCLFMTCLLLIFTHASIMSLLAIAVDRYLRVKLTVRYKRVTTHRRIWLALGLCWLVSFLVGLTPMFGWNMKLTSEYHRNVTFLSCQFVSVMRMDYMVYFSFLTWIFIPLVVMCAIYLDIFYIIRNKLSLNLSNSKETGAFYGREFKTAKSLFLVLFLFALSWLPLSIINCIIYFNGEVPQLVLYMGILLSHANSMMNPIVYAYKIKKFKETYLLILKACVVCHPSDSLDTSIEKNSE
Chain of CYP2D6 (P10635 whole entry): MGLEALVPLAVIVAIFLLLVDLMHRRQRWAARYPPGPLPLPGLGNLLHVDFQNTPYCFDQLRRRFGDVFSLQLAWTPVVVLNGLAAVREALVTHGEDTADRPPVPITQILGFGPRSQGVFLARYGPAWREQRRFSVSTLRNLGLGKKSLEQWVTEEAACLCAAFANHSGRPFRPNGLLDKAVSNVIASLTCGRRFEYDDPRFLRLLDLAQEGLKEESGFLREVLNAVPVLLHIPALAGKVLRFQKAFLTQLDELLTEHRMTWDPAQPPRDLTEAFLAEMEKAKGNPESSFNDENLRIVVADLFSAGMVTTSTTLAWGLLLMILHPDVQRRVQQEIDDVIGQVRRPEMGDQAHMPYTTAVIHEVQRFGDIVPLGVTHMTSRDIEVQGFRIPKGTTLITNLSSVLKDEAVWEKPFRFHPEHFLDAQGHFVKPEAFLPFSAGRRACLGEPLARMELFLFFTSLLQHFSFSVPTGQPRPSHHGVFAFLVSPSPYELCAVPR

Turning to `C[C@H](Nc1nc(C(=O)N2CC[C@@H](O)C2)c2sccc2n1)c1ccccn1` [Example Z59, ((R)-3-Hydroxypyrrolidin-1-yl)(2-(((S)-1-(pyridin-2-yl)ethyl)amino)thieno[3,2-d]pyrimidin-4-yl)methanone], the intrinsic clearance (hepatocyte CLint) in [1] is 4.19 µL/min/1e6 cells; in data set [3], 1.5 µL/min/1e6 cells; in [4], 8.7 µL/min/1e6 cells. The 50% inhibitory concentration (IC50) at adenosine A3 receptor [2] is over 500 nM; on adenosine A2B receptor, 10 to 50 nM; against adenosine A1 receptor [7] it was over 500 nM; at adenosine A2A receptor it was 100 to 500 nM. Further, the inhibition at 10 µM was found to be 15% at CYP2D6 and 0% on CYP3A4. In addition, on adenosine A2B receptor (setting [19]), the Ratio was determined as 12.76. Also, the “LM CLint” value was 4.87 μL/min/mg/protein in data set [5] and 4.86 μL/min/mg/protein in data set [6].
As for `CO[C@H]1CCN(C(=O)c2nc(N[C@@H](C)c3cncc(F)c3)nc3cc(C)sc23)C1` [Example Z301, (2-(((S)-1-(5-Fluoropyridin-3-yl)ethyl)amino)-6-methylthieno[3,2-d]pyrimidin-4-yl)((S)-3-methoxypyrrolidin-1-yl)methanone], the half-maximal inhibitory concentration (IC50) against adenosine A1 receptor [8] was over 500 nM; against adenosine A3 receptor [10], 50 to 100 nM; at adenosine A2B receptor, under 10 nM; at adenosine A2A receptor it was 100 to 500 nM. Also, the intrinsic clearance (hepatocyte CLint) in data set [9] came to 23.8 µL/min/1e6 cells; in data set [12] it was 51.7 µL/min/1e6 cells. For the same compound, on adenosine A2B receptor (setting [19]), the Ratio stood at 83.47. Besides, the inhibition at 10 µM in data set [11] worked out at 52%.
In the case of `CO[C@@H]1CCN(C(=O)c2nc(N[C@@H](C)c3ccccn3)nc3cc(C)sc23)C1` [Example Z312, ((R)-3-Methoxypyrrolidin-1-yl)(6-methyl-2-(((S)-1-(pyridin-2-yl)ethyl)amino)thieno[3,2-d]pyrimidin-4-yl)methanone], the IC50 was over 500 nM against adenosine A1 receptor [8], 50 to 100 nM against adenosine A3 receptor [10], under 10 nM on adenosine A2B receptor and 10 to 50 nM on adenosine A2A receptor. Further, the Ratio on adenosine A2B receptor (setting [19]) worked out at 3.05. In addition, the “LM CLint” value in data set [13] was found to be 57.04 μL/min/mg/protein; in [14] it was 10.94 μL/min/mg/protein.
Take `Cc1cc2nc(N[C@@H](C)c3cccnc3)nc(C(=O)N3CC[C@@H](CO)C3)c2s1` [Example Z335, ((R)-3-(Hydroxymethyl)pyrrolidin-1-yl)(6-methyl-2-(((S)-1-(pyridin-3-yl)ethyl)amino)thieno[3,2-d]pyrimidin-4-yl)methanone]: the IC50 was over 500 nM against adenosine A1 receptor [8], over 500 nM on adenosine A3 receptor [10], under 10 nM on adenosine A2B receptor and over 500 nM at adenosine A2A receptor. The Ratio at adenosine A2B receptor (setting [19]) is listed as 200.00. Also, the “LM CLint” value in [13] is 33.31 μL/min/mg/protein; in data set [14] it was 10.36 μL/min/mg/protein.
For `C[C@H](Nc1nc(C(=O)N2CC(N)C2)c2sccc2n1)c1cncc(F)c1` [Example Z401, (S)-(3-Aminoazetidin-1-yl)(2-((1-(5-fluoropyridin-3-yl)ethyl)amino)thieno[3,2-d]pyrimidin-4-yl)methanone], the “LM CLint” value in data set [15] is reported as 5.32 μL/min/mg/protein; in data set [16], 2.64 μL/min/mg/protein. Further, the 50% inhibitory concentration (IC50) on adenosine A2B receptor was 10 to 50 nM.
Regarding `Cc1cc2nc(N[C@@H](C)c3cncc(F)c3)nc(C(=O)N3CC[C@H](N)C3)c2s1` [Example Z412, ((S)-3-Aminopyrrolidin-1-yl)(2-(((S)-1-(5-fluoropyridin-3-yl)ethyl)amino)-6-methylthieno[3,2-d]pyrimidin-4-yl)methanone], the concentration for half-maximal inhibition (IC50) against adenosine A3 receptor [17] is over 500 nM; at adenosine A2B receptor, 10 to 50 nM; against adenosine A1 receptor [18], over 500 nM; on adenosine A2A receptor, over 500 nM. In addition, the “LM CLint” value in data set [15] is recorded as 26.34 μL/min/mg/protein; in data set [16], 0.15 μL/min/mg/protein. The Ratio on adenosine A2B receptor (setting [20]) worked out at 166.77.
Regarding `Cc1csc2c(C(=O)N3CCC3)nc(N[C@@H](C)c3cncc(F)c3)nc12` [Example Z415, (S)-Azetidin-1-yl(2-((1-(5-fluoropyridin-3-yl)ethyl)amino)-7-methylthieno[3,2-d]pyrimidin-4-yl)methanone], the IC50 against adenosine A3 receptor [17] was over 500 nM; on adenosine A2B receptor it was under 10 nM; on adenosine A1 receptor [18] it was 50 to 100 nM; at adenosine A2A receptor, 10 to 50 nM. Besides, the results for the “LM CLint” value in [15] and in [16] were 56.26 μL/min/mg/protein and 82.97 μL/min/mg/protein, respectively. Moreover, the Ratio on adenosine A2B receptor (setting [20]) worked out at 21.01.
For `C[C@H](Nc1nc(C(=O)N2CC(CN)C2)c2sccc2n1)c1cncc(F)c1` [Example Z419, (S)-(3-(Aminomethyl)azetidin-1-yl)(2-((1-(5-fluoropyridin-3-yl)ethyl)amino)thieno[3,2-d]pyrimidin-4-yl)methanone], the figures for the “LM CLint” value in data set [15] and in data set [16] were 9.09 μL/min/mg/protein and 0.69 μL/min/mg/protein, respectively. Further, the concentration for half-maximal inhibition (IC50) on adenosine A2B receptor fell in the range of 10 to 50 nM.
The corresponding values for `CC(=O)Nc1ccc(CCNC(=O)c2nc(N[C@@H](C)c3cncc(F)c3)nc3ccsc23)cc1` [Example Z421, (S)—N-(4-Acetamidophenethyl)-2-((1-(5-fluoropyridin-3-yl)ethyl)amino)thieno[3,2-d]pyrimidine-4-carboxamide] are 85.16 μL/min/mg/protein, 228.45 μL/min/mg/protein and 10 to 50 nM.
Consider `Cc1cc2nc(N[C@@H](C)c3cncc(F)c3)nc(C(=O)N3CC(N)C3)c2s1` [Example Z430, (S)-(3-Aminoazetidin-1-yl)(2-((1-(5-fluoropyridin-3-yl)ethyl)amino)-6-methylthieno[3,2-d]pyrimidin-4-yl)methanone], for which the IC50 against adenosine A3 receptor [17] was over 500 nM; at adenosine A2B receptor, under 10 nM; at adenosine A1 receptor [18], over 500 nM; at adenosine A2A receptor, over 500 nM. Further, the “LM CLint” value in data set [15] is reported as 4.83 μL/min/mg/protein; in [16], 5.77 μL/min/mg/protein. The Ratio at adenosine A2B receptor (setting [20]) worked out at 177.08.
In the case of `COc1cccc(CNC(=O)c2nc(N[C@@H](C)c3ccccn3)nc3c(C)csc23)n1` [Example Z450, (S)—N-((6-Methoxypyridin-2-yl)methyl)-7-methyl-2-((1-(pyridin-2-yl)ethyl)amino)thieno[3,2-d]pyrimidine-4-carboxamide], the IC50 against adenosine A3 receptor [17] was 50 to 100 nM; at adenosine A2B receptor it was 10 to 50 nM; against adenosine A1 receptor [18] it was over 500 nM; at adenosine A2A receptor, 10 to 50 nM. In addition, the “LM CLint” value in data set [15] is recorded as 314.14 μL/min/mg/protein; in data set [16], 82.93 μL/min/mg/protein. Also, the Ratio at adenosine A2B receptor (setting [20]) is reported as 0.64.
With `Cc1cc2nc(N[C@@H](C)c3cncc(F)c3)nc(C(=O)NCC[C@H]3CCNC3)c2s1` [Example Z463, 2-(((S)-1-(5-Fluoropyridin-3-yl)ethyl)amino)-6-methyl-N-(2-((R)-pyrrolidin-3-yl)ethyl)thieno[3,2-d]pyrimidine-4-carboxamide], the half-maximal inhibitory concentration (IC50) is over 500 nM against adenosine A3 receptor [17], 10 to 50 nM at adenosine A2B receptor, over 500 nM against adenosine A1 receptor [18] and over 500 nM at adenosine A2A receptor. Besides, the “LM CLint” value was 48.47 μL/min/mg/protein in data set [15] and 4.85 μL/min/mg/protein in data set [16]. Further, the Ratio at adenosine A2B receptor (setting [20]) amounted to 159.87.
In the case of `COc1ccc([C@@H](C)Nc2nc(C(=O)NCc3ccc(OC)nc3)c3sccc3n2)cc1` [Example Z465, (R)-2-((1-(4-Methoxyphenyl)ethyl)amino)-N-((6-methoxypyridin-3-yl)methyl)thieno[3,2-d]pyrimidine-4-carboxamide], the IC50 at adenosine A3 receptor [17] is over 500 nM; on adenosine A2B receptor it was over 500 nM; against adenosine A1 receptor [18], over 500 nM; on adenosine A2A receptor, 10 to 50 nM. Besides, the entries for the “LM CLint” value in data set [15] and in data set [16] were 75.91 μL/min/mg/protein and 35.20 μL/min/mg/protein, respectively. Moreover, the Ratio on adenosine A2B receptor (setting [20]) turned out to be 0.22.
For `C[C@H](Nc1nc(C(=O)N2CC(NC(=O)C3CC3)C2)c2sccc2n1)c1cncc(F)c1` [Example Z517, (S)—N-(1-(2-((1-(5-Fluoropyridin-3-yl)ethyl)amino)thieno[3,2-d]pyrimidine-4-carbonyl)azetidin-3-yl)cyclopropanecarboxamide], the IC50 was over 500 nM against adenosine A3 receptor [17], under 10 nM at adenosine A2B receptor, over 500 nM against adenosine A1 receptor [18] and 10 to 50 nM on adenosine A2A receptor. In addition, the “LM CLint” value in data set [15] was 16.99 μL/min/mg/protein; in data set [16], 6.17 μL/min/mg/protein. Also, the Ratio at adenosine A2B receptor (setting [20]) was found to be 4.68.

One may read the hepatocyte CLint as a measure of how fast metabolising enzymes remove a compound, apart from limits set by blood flow. For orientation: IC50 means the concentration at which inhibition is half-maximal.
